Measurements reported in BindingDB's records for patent US20240025922 (Merck Patent, 2024).

Target: Mitogen-activated protein kinase kinase kinase kinase 1 (Homo sapiens, UniProt Q92918)
Experiment: HPK1 Kinase Assay (Biochemical Assay)
Procedure: A recombinant fusion protein consisting of full-length human HPK1 (MAP4K1) with an N-terminal Glutatione S-transferase (GST) tag was produced in insect cells Sf21 using the baculovirus expression system. GST-HPK1 protein was purified from cell lysates by glutathione Sepharose affinity chromatography. The assay is run in three continuous steps: 1) the HPK1 enzymatic kinase reaction, 2) an ATP depletion, and 3) the ADP detection, the steps 2 and 3 are performed with ADP-Glo Kinase Assay kit from Promega (V9101). […] After 120 minutes, the reaction was stopped by adding 5 μL of ADP-Glo reagent (Promega, V9101) and incubating for 40 min. in the dark at 23 C. To determine the level of ADP, 10 μl ADP-Glo Detection solution was added and incubated for 1 hour at 23 C. in the dark.

Sequence of Mitogen-activated protein kinase kinase kinase kinase 1 (Q92918 whole entry): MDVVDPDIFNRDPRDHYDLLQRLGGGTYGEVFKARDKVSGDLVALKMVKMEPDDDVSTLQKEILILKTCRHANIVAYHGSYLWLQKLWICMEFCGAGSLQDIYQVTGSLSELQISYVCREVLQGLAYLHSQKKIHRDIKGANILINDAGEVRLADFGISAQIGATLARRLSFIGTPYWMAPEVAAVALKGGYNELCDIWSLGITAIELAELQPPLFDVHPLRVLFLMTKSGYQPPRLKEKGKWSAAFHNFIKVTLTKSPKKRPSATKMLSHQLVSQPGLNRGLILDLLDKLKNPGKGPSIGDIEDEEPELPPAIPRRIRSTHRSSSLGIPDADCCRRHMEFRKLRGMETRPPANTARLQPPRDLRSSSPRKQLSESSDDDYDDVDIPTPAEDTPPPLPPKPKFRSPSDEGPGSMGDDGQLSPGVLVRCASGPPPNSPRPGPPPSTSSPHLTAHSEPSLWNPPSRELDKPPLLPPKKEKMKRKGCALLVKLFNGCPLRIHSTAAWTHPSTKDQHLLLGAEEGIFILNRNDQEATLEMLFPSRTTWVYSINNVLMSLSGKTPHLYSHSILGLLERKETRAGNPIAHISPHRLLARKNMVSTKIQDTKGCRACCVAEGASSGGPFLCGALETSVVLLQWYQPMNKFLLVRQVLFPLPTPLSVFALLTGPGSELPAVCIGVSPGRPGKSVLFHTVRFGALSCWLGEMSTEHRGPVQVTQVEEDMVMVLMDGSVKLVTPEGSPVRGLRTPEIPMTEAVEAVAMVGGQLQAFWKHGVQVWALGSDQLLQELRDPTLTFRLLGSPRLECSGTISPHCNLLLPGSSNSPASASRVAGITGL

Row | IC50 [nM] | Compound
1 | < 100 | COc1cccc(F)c1N1CCc2cnc(Nc3cnc4c(c3)CN(C)CC4)nc2C1 [US20240025922, Example 120]
2 | > 1000 | Cc1cc(Nc2cc3c(cn2)CCN(c2cnc4c(c2Cl)NCCO4)C3)nn1CC(=O)N(C)C [US20240025922, Example 131]
3 | > 1000 | Cc1c(N2CCc3cnc(Nc4cc5n(n4)CC(=O)N(C(C)C)CC5)nc3C2)cnc2c1NCCO2 [US20240025922, Example 89]
